According to US12077503B2, “Substituted cyclic amides and their use as herbicides” (FMC CORPORATION, priority 2015, dated 2024):

Legend:
Format in all cases: in vivo
[1] = tested on: barnyardgrass (Echinochloa crus-galli); test: Test A preemergence; conditions: Echinochloa crus-galli, pre-emergence, 240 h, preemergence, read-out: Barnyardgrass plant response rating; for pest or weed control at 125 g/ha: 125 g ai/ha, approx. 10 d; for pest or weed control at 500 g/ha: 500 g ai/ha
Method in brief: (§1)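 Ratings of 0 (no effect) to 100 (complete control) come from visual comparison with untreated controls roughly 10 d after treatment. Test chemicals, formulated in a non-phytotoxic solvent mixture with surfactant, were applied either as a preemergence directed soil spray on seeded soil or postemergence to one- to two-leaf plants 2 to 10 cm tall.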

[2] = tested on: Galium (catchweed bedstraw, Galium aparine); test: Test A postemergence; conditions: Galium, post-emergence, 240 h, postemergence, read-out: Galium plant response rating; for pest or weed control at 125 g/ha: 125 g ai/ha, visual injury on 0 to 100 scale (0 no effect, 100 complete control), approx. 10 d; for pest or weed control at 500 g/ha: 500 g ai/ha, 0 to 100 scale, 0 is no effect, 100 is complete control
Method in brief: as §1

Kochia (Kochia scoparia) = test: Test A postemergence; conditions: Bassia scoparia, post-emergence, 240 h, postemergence, read-out: Kochia plant response rating; for pest or weed control at 125 g/ha: 125 g ai/ha, visual injury on 0 to 100 scale (0 no effect, 100 complete control), approx. 10 d; for pest or weed control at 500 g/ha: 500 g ai/ha, 0 to 100 scale, 0 is no effect, 100 is complete control
Method in brief: as §1

[3] = tested on: barnyardgrass (Echinochloa crus-galli); test: Test A postemergence; conditions: Echinochloa crus-galli, post-emergence, 240 h, postemergence, read-out: Barnyardgrass plant response rating; for pest or weed control at 125 g/ha: 125 g ai/ha, visual injury on 0 to 100 scale (0 no effect, 100 complete control), approx. 10 d; for pest or weed control at 500 g/ha: 500 g ai/ha, 0 to 100 scale, 0 is no effect, 100 is complete control
Method in brief: as §1

[4] = tested on: blackgrass (Alopecurus myosuroides); test: Test A postemergence; conditions: Alopecurus myosuroides, post-emergence, 240 h, postemergence, read-out: Blackgrass plant response rating; for pest or weed control at 125 g/ha: 125 g ai/ha, visual injury on 0 to 100 scale (0 no effect, 100 complete control), approx. 10 d; for pest or weed control at 500 g/ha: 500 g ai/ha, 0 to 100 scale, 0 is no effect, 100 is complete control
Method in brief: as §1

corn (Zea mays) = test: Test A postemergence; conditions: Zea mays, post-emergence, 240 h, postemergence, read-out: Corn plant response rating; for plant injury at 125 g/ha: 125 g ai/ha, visual injury on 0 to 100 scale (0 no effect, 100 complete control), approx. 10 d; for plant injury at 500 g/ha: 500 g ai/ha, 0 to 100 scale, 0 is no effect, 100 is complete control
Method in brief: as §1

[5] = tested on: giant foxtail (Setaria faberii); test: Test A postemergence; conditions: Setaria faberi, post-emergence, 240 h, postemergence, read-out: Foxtail, Giant plant response rating; for pest or weed control at 125 g/ha: 125 g ai/ha, visual injury on 0 to 100 scale (0 no effect, 100 complete control), approx. 10 d; for pest or weed control at 500 g/ha: 500 g ai/ha, 0 to 100 scale, 0 is no effect, 100 is complete control
Method in brief: as §1

[6] = tested on: pigweed (Amaranthus retroflexus); test: Test A postemergence; conditions: Amaranthus retroflexus, post-emergence, 240 h, postemergence, read-out: Pigweed plant response rating; for pest or weed control at 125 g/ha: 125 g ai/ha, visual injury on 0 to 100 scale (0 no effect, 100 complete control), approx. 10 d; for pest or weed control at 500 g/ha: 500 g ai/ha, 0 to 100 scale, 0 is no effect, 100 is complete control
Method in brief: as §1

[7] = tested on: ragweed (common ragweed, Ambrosia elatior); test: Test A postemergence; conditions: Ambrosia artemisiifolia, post-emergence, 240 h, postemergence, read-out: Ragweed plant response rating; for pest or weed control at 125 g/ha: 125 g ai/ha, visual injury on 0 to 100 scale (0 no effect, 100 complete control), approx. 10 d; for pest or weed control at 500 g/ha: 500 g ai/ha, 0 to 100 scale, 0 is no effect, 100 is complete control
Method in brief: as §1

[8] = tested on: ryegrass, Italian (Italian ryegrass, Lolium multiflorum); test: Test A postemergence; conditions: Lolium multiflorum, post-emergence, 240 h, postemergence, read-out: Ryegrass, Italian plant response rating; for pest or weed control at 125 g/ha: 125 g ai/ha, visual injury on 0 to 100 scale (0 no effect, 100 complete control), approx. 10 d; for pest or weed control at 500 g/ha: 500 g ai/ha, 0 to 100 scale, 0 is no effect, 100 is complete control
Method in brief: as §1

[9] = tested on: wheat (Triticum aestivum); test: Test A postemergence; conditions: Triticum aestivum, post-emergence, 240 h, postemergence, read-out: Wheat plant response rating; for plant injury at 125 g/ha: 125 g ai/ha, visual injury on 0 to 100 scale (0 no effect, 100 complete control), approx. 10 d; for plant injury at 500 g/ha: 500 g ai/ha, 0 to 100 scale, 0 is no effect, 100 is complete control
Method in brief: as §1

[10] = tested on: barnyardgrass (Echinochloa crus-galli); test: Test B flooded paddy test; conditions: Echinochloa crus-galli, 250 g ai/ha, Flood; 0 to 100 scale where 0 is no effect and 100 is complete control; read-out: Barnyardgrass plant response rating
Method in brief: (§2)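 Response scored visually against untreated controls, 0 = no effect and 100 = complete control, 13–15 d after treatment in the greenhouse. Compounds added to paddy water held 3 cm above soil surface. Treatment given at 2-leaf stage.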

[11] = tested on: ducksalad (Heteranthera limosa); test: Test B flooded paddy test; conditions: Heteranthera limosa, 250 g ai/ha, Flood; 0 to 100 scale where 0 is no effect and 100 is complete control; read-out: Ducksalad plant response rating
Method in brief: as §2

rice (Oryra sativa) = test: Test B flooded paddy test; conditions: Oryza sativa, 250 g ai/ha, Flood; 0 to 100 scale where 0 is no effect and 100 is complete control; read-out: Rice plant response rating
Method in brief: as §2

[12] = tested on: sedge, umbrella (small-flower umbrella sedge, Cyperus difformis); test: Test B flooded paddy test; conditions: Cyperus difformis, 250 g ai/ha, Flood; 0 to 100 scale where 0 is no effect and 100 is complete control; read-out: Sedge, Umbrella plant response rating
Method in brief: as §2

[13] = 0 to 100 scale where 0 is no effect and 100 is complete control
[14] = visual injury rating about 10 d after treatment, 0 to 100 scale (0 no effect, 100 complete control)

Row | Compound | pest or weed control at 125 g/ha [1, 13] [%] | pest or weed control at 125 g/ha [2] [%] | pest or weed control at 500 g/ha [2] [%] | pest or weed control at 125 g/ha (Kochia (Kochia scoparia)) [%] | pest or weed control at 500 g/ha (Kochia (Kochia scoparia)) [%] | pest or weed control at 125 g/ha [3] [%] | pest or weed control at 500 g/ha [3] [%] | pest or weed control at 125 g/ha [4] [%] | pest or weed control at 500 g/ha [4] [%] | plant injury at 125 g/ha (corn (Zea mays)) [%] | plant injury at 500 g/ha (corn (Zea mays)) [%] | pest or weed control at 125 g/ha [5] [%] | pest or weed control at 500 g/ha [5] [%] | pest or weed control at 125 g/ha [6] [%] | pest or weed control at 500 g/ha [6] [%] | pest or weed control at 125 g/ha [7] [%] | pest or weed control at 500 g/ha [7] [%] | pest or weed control at 125 g/ha [8] [%] | pest or weed control at 500 g/ha [8] [%] | plant injury at 125 g/ha [9] [%] | also measured
1 | O=C1NC[C@H](c2csc(C(F)F)c2)[C@H]1C(=O)Nc1cccc(F)c1F [Compound 1119] | 90 | 40 | 50 | 40 | 60 | 80 | 90 | 50 | 70 | 20 | 30 | 30 | 70 | 0 | 20 | 20 | 60 | 30 | 30 | 20 | pest or weed control at 500 g/ha [1, 14]: 90%; plant injury at 500 g/ha [9]: 50%; pest or weed control at 250 g/ha [10]: 60%; pest or weed control at 250 g/ha [11]: 100%; pest or weed control at 250 g/ha (rice (Oryra sativa)): 20%; pest or weed control at 250 g/ha [12]: 50%
2 | CN1C[C@H](c2cc(C(F)F)cs2)[C@@H](C(=O)Nc2cccc(F)c2F)C1=O [Compound 1121] | 90 | 50 | 60 | 50 | 70 | 90 | 90 | 40 | 60 | 50 | 90 | 90 | 90 | 20 | 40 | 20 | 40 | 40 | 70 | 30 | pest or weed control at 500 g/ha [1, 14]: 100%; plant injury at 500 g/ha [9]: 60%; pest or weed control at 250 g/ha [10]: 70%; pest or weed control at 250 g/ha [11]: 100%; pest or weed control at 250 g/ha (rice (Oryra sativa)): 10%; pest or weed control at 250 g/ha [12]: 0%
3 | CCc1cc(CC)cc([C@H]2CNC(=O)[C@@H]2C(=O)Nc2cccc(F)c2F)c1 [Compound 1139] | 90 | 50 | 60 | 0 | 0 | 60 | 90 | 40 | 60 | 60 | 80 | 40 | 70 | 0 | 0 | 0 | 40 | 40 | 50 | 50 | pest or weed control at 500 g/ha [1, 13]: 90%; plant injury at 500 g/ha [9]: 70%; pest or weed control at 250 g/ha [10]: 0%; pest or weed control at 250 g/ha [11]: 30%; pest or weed control at 250 g/ha (rice (Oryra sativa)): 20%; pest or weed control at 250 g/ha [12]: 0%
4 | Cc1c(F)cccc1NC(=O)[C@H]1C(=O)N(C)C[C@@H]1c1cc(F)cc(F)c1 [Compound 1140] | 90 | 40 | 50 | 0 | 40 | 90 | 90 | 30 | 70 | 60 | 70 | 90 | 90 | 0 | 0 | 0 | 30 | 50 | 70 | 30 | pest or weed control at 500 g/ha [1, 13]: 100%; plant injury at 500 g/ha [9]: 70%; pest or weed control at 250 g/ha [10]: 75%; pest or weed control at 250 g/ha [11]: 100%; pest or weed control at 250 g/ha (rice (Oryra sativa)): 0%; pest or weed control at 250 g/ha [12]: 0%
